Test results taken from publication PMC9032457, “Binding Interaction of Betulinic Acid to α-Glucosidase and Its Alleviation on Postprandial Hyperglycemia” (Molecules, 2022).
Where two headings read alike, the source gives them in different places.

Columns and labels:
[1] = tested on: postprandial blood glucose level; assay: Oral disaccharide tolerance test (ODTT); assay type: in vivo, BALB/c mice; settings: normal mice, oral BA 20 mg/kg or acarbose 7 mg/kg; for postprandial blood glucose levels vs control: after mixed maltose-sucrose, p < 0.01; for blood glucose level at 30 min: mixed maltose-sucrose 2 g/kg, control 12.58 ± 0.47
Procedure: (§1) The dynamic characteristics of postprandial blood glucose level were evaluated by ODTT and OGTT, which were performed as described previously. BALB/c mice (5 weeks old, male) were purchased from Guangdong Medical Laboratory Animal Center (Guangzhou, China). The animal study was approved by the Committee on the Ethics of Animal Experiments of the Institute of Microbiology, Guangdong Academy of Science (GT-IACUC202012102). After one week of acclimation, the mice were randomly divided into a control group, BA-treated group and acarbose-treated group (n = 8), respectively. […] After 30 min, all the mice were intragastrically administered with the mixed maltose-sucrose solution (2 g/kg). In total, 10 μL of blood was collected by tail cut and glucose levels at 0, 30, 60, 90 and 120 min was measured by glucometer (Roche ACCU-CHEK Performa Nano), respectively. Two days later, all the mice were give the oral glucose tolerance test (OGTT), which was performed as the ODTT modus. The oral dose of glucose was also 2 g/kg.

[2] = target: T1, α-glucosidase (Saccharomyces cerevisiae, UniProt P53341); set-up: method as in PMID 29902001, doi:10.1016/j.indcrop.2015.08.031, PMID 33876656; settings: in vitro; read-out: IC50 against α-glucosidase, previous research; cited from earlier work
T1 construct: purchased Sigma-Aldrich
T1 sequence (P53341 whole entry): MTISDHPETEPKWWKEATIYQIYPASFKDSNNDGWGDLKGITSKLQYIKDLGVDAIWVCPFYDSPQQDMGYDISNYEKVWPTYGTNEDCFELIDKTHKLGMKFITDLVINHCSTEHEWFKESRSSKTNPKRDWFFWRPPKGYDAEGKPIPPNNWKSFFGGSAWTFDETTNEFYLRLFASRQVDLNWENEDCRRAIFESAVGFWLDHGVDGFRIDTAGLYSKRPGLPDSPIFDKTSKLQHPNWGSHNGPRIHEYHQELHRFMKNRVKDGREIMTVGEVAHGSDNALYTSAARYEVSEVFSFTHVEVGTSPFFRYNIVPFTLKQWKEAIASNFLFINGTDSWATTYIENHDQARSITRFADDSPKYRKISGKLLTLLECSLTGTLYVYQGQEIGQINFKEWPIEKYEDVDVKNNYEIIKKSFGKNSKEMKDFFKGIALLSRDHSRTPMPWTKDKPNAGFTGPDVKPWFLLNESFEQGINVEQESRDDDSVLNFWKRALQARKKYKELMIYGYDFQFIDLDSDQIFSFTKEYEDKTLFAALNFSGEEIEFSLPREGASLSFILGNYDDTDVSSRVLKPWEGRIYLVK

[3] = target: T1, α-glucosidase; assay: SPR assay (Biacore T200); assay type: binding; settings: 1:1 Langmuir model, enzyme immobilized on CM5 chip, read-out: equilibrium dissociation constant (KD)
Procedure: SPR analysis was applied on a Biacore T200 system (GE Healthcare, Uppsala, Sweden). α-Glucosidase solution (50 μg/mL) was prepared and stayed at room temperature for 30 min. Then, the activated α-glucosidase was immobilized on a CM5 sensor chip pre-activated by EDC/NHS with an amine coupling kit at a flow rate of 10 μL/min. BA solution of different concentrations containing 5% DMSO was serially injected over α-glucosidase coated surface. PBS was used as the mobile phase with a flow rate of 30 μL/min. According to the 1:1 Langmuir model, the equilibrium dissociation constant (KD) was calculated by the Biacore evaluation software. (https://www.cytivalifesciences.com/en/us/shop/protein-analysis/spr-label-free-analysis/software/biacore-insight-evaluation-software-p-23528, accessed on 26 October 2016).

[4] = target: T1, α-glucosidase; assay: α-Glucosidase inhibition assay (pNPG substrate); assay type: biochemical
Procedure: α-Glucosidase inhibition was assayed according to the methods described previously. Briefly, 40 μL phosphate buffer (0.1 M, pH = 6.8), 10 μL BA solutions and 50 μL α-glucosidase solution (0.4 U/mL) were added into 96-well plates and mixed thoroughly. After being incubated at 37 °C for 10 min, 50 μL pNPG solution (2.5 mM) was added to initiate the reaction and stayed at 37 °C for 30 min. Then, 40 μL Na2CO3 solution (1.0 M) was added to terminate the reaction. A microplate reader was employed to read the absorbance at 405 nm. The inhibition rates (%) = [(ODcontrol − ODcontrol blank) − (OD test − ODtest blank)]/(ODcontrol − ODcontrol blank) × 100%.

[5] = target: T1, α-glucosidase; assay: Enzyme inhibition kinetics (Lineweaver-Burk plot); assay type: biochemical
Procedure: α-Glucosidase inhibition kinetics was studied as previously reported. BA was set with the concentrations of 0, 12 and 24 μM for 0.2 U/mL α-glucosidase. A series of concentrations of pNPG were used as substrates. The inhibition type was determined by using the Lineweaver–Burk plots and its secondary equations. The kinetic parameters (Vmax and Ki) were evaluated by the nonlinear regression of the Michaelis–Menton equation with GraphPad Prism 7.0. (https://www.graphpad.com/support/prism-7-updates/, accessed on 12 May 2021).

[6] = tested on: postprandial blood glucose level; assay: Oral glucose tolerance test (OGTT); assay type: in vivo, BALB/c mice; settings: normal mice, oral BA 20 mg/kg or acarbose 7 mg/kg; glucose 2 g/kg
Procedure: as §1

[7] = target: T1, α-glucosidase; assay: Combination of acarbose with BA on α-glucosidase activity; assay type: biochemical, yeast; set-up: key to Vab (observed residual activity) / Vc (expected residual activity): fraction of remaining α-glucosidase activity (0–1)
Procedure: The method was the same as the α-glucosidase activity assay. […] The value for BA (Vb) was also defined. If the inhibitory effects on α-glucosidase of the two compounds are independent, the final remnant activity fraction of α-glucosidase (Vc) is equal to VaVb when the reaction is sequentially treated by those two compounds. […] The types of interaction were determined by the relationship between Vab and Va, Vb, or Vc.

[8] = target: T1, α-glucosidase; set-up: method as in PMID 29030193; settings: literature; cited from earlier work

## C=C(C)[C@@H]1CC[C@]2(C(=O)O)CC[C@]3(C)[C@H](CC[C@@H]4[C@@]5(C)CC[C@H](O)C(C)(C)[C@@H]5CC[C@]43C)[C@@H]12 [BA, betulinic acid]
[1]
  postprandial blood glucose levels vs control: significantly suppressed
  blood glucose level at 30 min: 10.46 ± 0.31 mM
[2]
  IC50: 10.6 to 83.6 µM
[3]
  Kd: 55.3 µM
[4]; BA IC50 vs acarbose IC50
  fold stronger than acarbose (IC50): approximately 50 fold
[4]; pNPG 2.5 mM, pH 6.8, 37 °C, read-out: IC50 against α-glucosidase
  IC50: 16.8 ± 1.16 µM
[5]; Lineweaver-Burk plot, BA 0, 12 and 24 μM, 0.2 U/mL enzyme
  inhibition type: non-competitive
[5]; from secondary plot of slope vs. BA, read-out: inhibition kinetic constant (Ki)
  Ki: 38.5 µM
[6]
  effect on blood glucose level after oral glucose: no significant effect
[7]; BA 5 μM + acarbose 600 μM
  Interaction: SY (Vab − Vc < −0.1 is considered as the synergistic (SY) interaction between BA and acarbose)
  Vab (observed residual activity): 0.47
  Vab − Vc: −0.12
  Vc (expected residual activity): 0.59
[7]; BA 5 μM + acarbose 800 μM
  Interaction: SY (Vab − Vc < −0.1 is considered as the synergistic (SY) interaction between BA and acarbose)
  Vab (observed residual activity): 0.42
  Vab − Vc: −0.15
  Vc (expected residual activity): 0.56
[7]; BA 5 μM + acarbose 1000 μM
  Interaction: SY (Vab − Vc < −0.1 is considered as the synergistic (SY) interaction between BA and acarbose)
  Vab (observed residual activity): 0.41
  Vab − Vc: −0.13
  Vc (expected residual activity): 0.53
[7]; BA 10 μM + acarbose 600 μM
  Interaction: SY (Vab − Vc < −0.1 is considered as the synergistic (SY) interaction between BA and acarbose)
  Vab (observed residual activity): 0.39
  Vab − Vc: −0.18
  Vc (expected residual activity): 0.57
[7]; BA 10 μM + acarbose 800 μM
  Interaction: SY (Vab − Vc < −0.1 is considered as the synergistic (SY) interaction between BA and acarbose)
  Vab (observed residual activity): 0.36
  Vab − Vc: −0.18
  Vc (expected residual activity): 0.54
[7]; BA 10 μM + acarbose 1000 μM
  Interaction: SY (Vab − Vc < −0.1 is considered as the synergistic (SY) interaction between BA and acarbose)
  Vab (observed residual activity): 0.34
  Vab − Vc: −0.17
  Vc (expected residual activity): 0.51
[7]; BA 15 μM + acarbose 600 μM
  Interaction: SY (Vab − Vc < −0.1 is considered as the synergistic (SY) interaction between BA and acarbose)
  Vab (observed residual activity): 0.32
  Vab − Vc: −0.18
  Vc (expected residual activity): 0.50
[7]; BA 15 μM + acarbose 800 μM
  Interaction: SY (Vab − Vc < −0.1 is considered as the synergistic (SY) interaction between BA and acarbose)
  Vab (observed residual activity): 0.29
  Vab − Vc: −0.18
  Vc (expected residual activity): 0.48
[7]; BA 15 μM + acarbose 1000 μM
  Interaction: SY (Vab − Vc < −0.1 is considered as the synergistic (SY) interaction between BA and acarbose)
  Vab (observed residual activity): 0.28
  Vab − Vc: −0.16
  Vc (expected residual activity): 0.45

## C[C@H]1O[C@H](O[C@H]2[C@H](O)[C@@H](O)[C@@H](O[C@H]3[C@H](O)[C@@H](O)C(O)O[C@@H]3CO)O[C@@H]2CO)[C@H](O)[C@@H](O)[C@@H]1N[C@H]1C=C(CO)[C@@H](O)[C@H](O)[C@H]1O (stereo partly drawn) [acarbose, reference compound]
[1]
  postprandial blood glucose levels vs control: significantly suppressed
  blood glucose level at 30 min: 10.76 ± 0.39 mM
[6]
  effect on blood glucose level after oral glucose: no significant effect
[8]
  inhibition type: competitive

## CC1(C)CC[C@]2(C(=O)O)CC[C@]3(C)C(=CC[C@@H]4[C@@]5(C)CC[C@H](O)C(C)(C)[C@@H]5CC[C@]43C)[C@@H]2C1 [oleanolic acid]
[8]
  inhibition type: non-competitive

## C[C@H]1[C@H](C)CC[C@]2(C(=O)O)CC[C@]3(C)C(=CC[C@@H]4[C@@]5(C)CC[C@H](O)C(C)(C)[C@@H]5CC[C@]43C)[C@H]12 [ursolic acid]
[8]
  inhibition type: non-competitive
